Results on eight compounds are retold here after US12472185B2, “Methods for killing antibiotic tolerant bacteria” (THE PENN STATE RESEARCH FOUNDATION, priority 2020, dated 2025).

In one experiment the test system is E. coli BW25113 exponential cells. Briefly: Survival of exponentially-growing cells (drop assay). In kind it is cell-based, Escherichia coli. The settings on record: 100 μM, 6 hr. The procedure:
FIG. 2. NPIMA eradicates Escherichia coli, Pseudomonas aeruginosa, and Staphylococcus aureus exponential cells. Survival after 6 hr for (a) E. coli BW25113 with NPIMA and 5-iodoindole at 100 μM, (b) P. aeruginosa PA14 with NPIMA and 5-iodoindole at 100 μM, and (c) S. aureus with NPIMA and 5-iodoindole at 200 μM. Asterisk indicates no viable cells detected. NPIMA, 5-nitro-3-phenyl-1H-indol-2-yl-methylamine hydrochloride.
FIG. 8. NPIMA structure function relationships. Exponential cells of Escherichia coli BW25113 were treated with (a) 2-(aminomethyl) indole, and (b) 2-methyl-5-nitro-3-phenyl-1H-indole for 6 hr. NPIMA, 5-nitro-3-phenyl-1Hindol-2-yl-methylamine hydrochloride.
For bacterial viability, cells were washed twice with 0.85% NaCl, resuspended in 1×PBS, and cell counts were determined via the drop assay (Donegan, Matyac, Seidler, & Porteous, 1991). For human cell viability, pre-cultured human cancer HT-29 cells were dispensed in 98 μl in 96-well plates with approximately 5,000 cells/well. NPIMA was added (2 μl) to produce concentrations of 5, 10, 100, and 200 μM. For controls, Triton X-100 (positive control) and DMSO (negative solvent control), were used, and the medium was used for background. Plates were incubated in a humidified incubator (37° C., 5% CO2) for 24 hr. Cell viability was determined via a cell counting kit (CCK-8 Kit, ab228554; Abcam), and cytotoxicity was determined via the lactate dehydrogenase (LDH) assay (LDH Assay Kit, MK401; Takara).
With `NCc1cc2ccccc2[nH]1` [2-(aminomethyl)-indole], the “killing of exponential E. coli cells” value is recorded as “unable to kill E. coli”.

`Cc1[nH]c2ccc([N+](=O)[O-])cc2c1-c1ccccc1` [2-methyl-5-nitro-3-phenyl-1H-indole]: the “killing of exponential E. coli cells” value is “unable to kill E. coli”.

The subject of the next experiment is E. coli persister cells. Briefly: ChemBridge screen for persister cell killing. In kind it is cell-based, Escherichia coli. The settings on record: 100 μM, 24 hr. As for the experimental part: FIG. 1. […] Escherichia coli persister cells were treated for 24 hr at 100 μM with: • 1: N-(3,4-dichlorophenyl)-N′-(3-fluorophenyl) thiourea; • 2: 2-({2-[(4-bromophenyl)amino]-4-quinazolinyl}amino)ethanol hydrochloride; • 3: 2-[(6-phenyl-2,3,4,9-tetrahydro-1H-carbazol-1-yl)amino] ethanol; • 4: 1-(3,6-dichloro-9H-carbazol-9-yl)-3-(2-methyl-1H-imidazol-1-yl)-2-propanol; • 5: N-[2-(4-fluorophenyl)ethyl]-N′-(4-nitrophenyl) thiourea; • 6: N-(4-chlorobenzyl)-N′-4-pyridinylthiourea; • 7: N′-(3,5-dichloro-2-hydroxybenzylidene)-2-oxo-4-phenyl-3-pyrrolidinecarbohydrazide; and • 8: [(5-nitro-3-phenyl-1H-indol-2-yl)methyl]amine hydrochloride (NPIMA, structure shown in inset).
To identify compounds that kill E. coli persister cells, 10,000 compounds of the DIVERset Library from ChemBridge (San Diego, CA) were tested by adding 4 μl of each (in DMSO, final concentration 100 μM) to 186 μl of LB in 96-well plates along with 10 μl of persister cells; the persister cells were added after the ChemBridge chemical since LB wakes persister cells (Kim, Yamasaki, et al., 2018). For the negative control, pure DMSO (final concentration 2 vol %) was used. The degree of inhibition was determined by the change in turbidity at 600 nm after 24 hr. The best 26 compounds were re-tested with the same conditions.
To screen directly for killing persister cells, a high-throughput approach using 96-well microtiter plates was devised that consisted of (a) washing persister cells formed from exponentially-growing cells using rifampicin pretreatment followed by ampicillin treatment, (b) adding 10 μl of the persister cells to 190 μl of LB containing one each of the 10,000 compounds of the DiverSet library dissolved in dimethyl sulfoxide (100 μM final concentration), and (c) monitoring for growth via change in turbidity for 24 hr. With this approach, we allowed for up to a 140-fold change in turbidity (0.005 could be increased to 0.69).
Turning to `Fc1cccc(NC(=S)Nc2ccc(Cl)c(Cl)c2)c1` [compound 1, N-(3,4-dichlorophenyl)-N′-(3-fluorophenyl) thiourea], the “persister killing, second screen (FIG. 1)” value (“persister killing” below) was “Most effective”.

Turning to `Cl.OCCNc1nc(Nc2ccc(Br)cc2)nc2ccccc12` [compound 2, 2-({2-[(4-bromophenyl)amino]-4-quinazolinyl}amino)ethanol hydrochloride], the “persister killing” value is listed as “Most effective”.

Turning to `OCCNC1CCCc2c1[nH]c1ccc(-c3ccccc3)cc21` (centres unmarked) [compound 3, 2-[(6-phenyl-2,3,4,9-tetrahydro-1H-carbazol-1-yl)amino] ethanol], the “persister killing” value is given as “Most effective”.

Take `Cc1nccn1CC(O)Cn1c2ccc(Cl)cc2c2cc(Cl)ccc21` (centres unmarked) [compound 4, 1-(3,6-dichloro-9H-carbazol-9-yl)-3-(2-methyl-1H-imidazol-1-yl)-2-propanol]: the “persister killing” value is recorded as “Most effective”.

`S=C(NCc1ccc(Cl)cc1)Nc1ccncc1` [compound 6, N-(4-chlorobenzyl)-N′-4-pyridinylthiourea]: the “persister killing” value is “Most effective”.

Turning to `O=C1NCC(c2ccccc2)C1C(=O)N/N=C\c1cc(Cl)cc(Cl)c1O` (centres unmarked) [compound 7, N′-(3,5-dichloro-2-hydroxybenzylidene)-2-oxo-4-phenyl-3-pyrrolidinecarbohydrazide], the “persister killing” value was “Most effective”.
